Measured values from patent US20040076622A1, “Local production and/or delivery of anti-cancer agents by stromal cell precursors” (Board of Regents, The University of Texas System, priority 2002, published 2004).
Read-outs that look alike come from different tables or passages of the source.

Key:
[1] = system: MFP-regulated promoter; assay: MFP dependent induction of IFN-α from AAV-infected MSC (ELISA); type: cell-based, human; details: MSC infected with MFP regulated AAV
Protocol: Regulated expression from a drug inducible AAV vector. An AAV construct was used that expressed IFN-α under the control of a MFP-regulated promoter, to infect normal donor MSC in vitro. Briefly, MSC were infected with 10^3 GE of AAV-IFN-α and 10^3 GE of AAV-gal4prlMFP, and expanded for 10 additional days. These cells were subcultured into 12 well dished were MFP (dissolved in 0.1% ETOH) or solvent carrier was added at the concentrations noted. MSC infected w/ the MFP regulated AAV, express IFN-α only after 18 h exposure to MFP (FIG. 4A). Three drug concentrations were tested, each dose was 10-fold less than the previous one, and with the initial dose of 10^−7 M being 3 logs less than the dose commonly given for chemical abortions in humans. Of note is that a one-time addition of MFP results in a prolonged 8-10 day expression of IFN-α, peaking at 4-5 days after drug addition. […] Ten days after IFN-α level reached background activity we waited 3 additional days and added another dose of 10^-8 M MFP. […]
Exemplary methods for harvesting, culture, and infection of MSC. […] Forty-eight hours later cells are analyzed for βgal expression using X-gal histochemical staining or analysis with FACS utilizing CM-FDG, as in Marini et al. (1999). […] Six to 24 h later, supernatant is collected and analyzed via Quantikine IFN-α ELISA (Biosource International Inc Camarillio Calif.).

[2] = Systemic expression of IFN-α after intramuscular injection of AAV in mice (ELISA); type: in vivo, mouse; details: one application of MFP given IP, mice injected with inducible AAVs
Protocol: In vivo testing. To initiate a in vivo culture model of CML, two BCR-ABL+ cell lines, the K562 (which grow extramedullary in nu/nu mice) or BV173 (which grows intra bone marrow in BalbC/nu mice) were injected into respective mice. […] Utilizing the BV173 cell line we tested three cell doses and found one million BV173 cells were sufficient to kill the mice within 45 days, whereas 5×10^5 BV173 cells allowed the mice to survive for 60+ days with one mice still surviving. […] As an alternative to using MSCs as a cell based therapy, the AAV vectors may be directly inject into the muscle, thereby allowing secretion of IFN-α systemically. Evaluation of this route of delivery was performed by an intramuscular injection of […] AAV-CMV-IFN-α or 5×10^10 GE of AAV-Gal4hPRL-65AD and 5×10^10 GE of AAV-G5E-IFN-α into the quadriceps of mice. Mice were bled weekly and the serum was analyzed for IFN-α expression using the Biosource ELISA kit. As shown in FIG. 9 circulating levels of hIFN-α was detected in the peripheral blood, and more importantly, it was identified over the high background level seen in these nu/nu animals. […] Using this mouse model circulating levels of human IFN-α were detected. Human MSC may also be detected using molecular, fluorescent, and immunohistochemical approaches.

[3] = system: melanoma; details: cited from earlier work
[4] = system: CML; details: cited from earlier work
[5] = system: KBM5-STI cells; assay: Growth inhibition of STI-resistant KBM5 cells by STI and IFN-α; type: cell-based; details: for Growth inhibition of KBM5-STI cells: ST1571 0.5, 1.0, 2.0 tmol, IFNα 2,000, 5,000, 10,000 U
Description: (§1) The effects of IFNA and ST1571 on STI-resistant KBM5 cells were studied.

[6] = system: KBM5 cells; assay: Growth inhibition of KBM5 cells by STI and IFN-α; type: cell-based; details: ST1571 0.5, 1.0, 2.0 tmol; IFNα 2,000, 5,000, 10,000 U
Description: as §1

[7] = system: MSC; assay: Effect of MDA7 on growth of the MSC; type: cell-based; details: MSC growth not affected
Protocol: MSC were infected with a β-gal MDA7 adenovirus provided by Dr. Sunil Chada (Introgen, Houston, Tex.) at 50, 500, 5,000, and 25,000 MOI. All experiments were performed in duplicate supernatant from control and MDA7-MSC was obtained and added to KBM5 and KBM5-STI cells and assayed at 24 and 72 hours. Co-cultures of β-gal MDA7-MSC and control MSC with KBM5 (STI-sensitive) and KBM5-STI (STI-resistant) cells were also performed, with the MSC growing to near-confluency and 0.125×10^6 cells/mL plated on the MSC in 12 well plates. All wells were assayed at 24 and 72 hours.

[8] = patients with chronic phase CML

CC#C[C@]1(O)CC[C@H]2[C@@H]3CCC4=CC(=O)CCC4=C3[C@@H](c3ccc(N(C)C)cc3)C[C@@]21C [MFP, mifpristone]
Time of peak IFN-α expression after drug addition [1]: 4 to 5 days
Duration of IFN-α expression after a one-time addition of MFP ([1]; 18 h exposure): 8 to 10 days
Period over which the single peak of IFN-α activity decays [2]: 7 days

IFNα
Overall response rate ([3]; advanced melanoma): 20%
Improvement in the fraction of patients who are disease-free ([3]; high risk melanoma): 42%
CCR's lost ([4]; CML patients at 5 years): 42%
CCR's lost ([4]; CML patients at 8 years): 50%
Patients able to maintain high concentrations ([4]; patients who received INFα for CML): less than 30%
Growth inhibition of KBM5-STI cells [5]: but not on KBM5-STI cells
Enhancement of the STI effect by IFNα ([5]; in vitro, KBM5 and KBM5-STI cells): did not enhance the STI effect
Growth inhibition of KBM5 cells [6]: pronounced growth inhibitory effects

Cc1ccc(NC(=O)c2ccc(CN3CCN(C)CC3)cc2)cc1Nc1nccc(-c2cccnc2)n1 [ST1571]
Complete cytogenetic remissions [4, 8]: 95%
Hematological remission [4, 8]: > 90%
RT-PCR negativity [4, 8]: 8%
Growth inhibition of KBM5-STI cells [5]: resistant
Growth inhibition of KBM5 cells [6]: highly sensitive

B1: MDA7: melanoma differentiation associated protein 7, classified as interleukin-24 (protein, UniProt Q13007 52-206, looked up)
Interleukin-24: QEFHFGPCQVKGVVPQKLWEAFWAVKDTMQAQDNITSARLLQQEVLQNVSDAESCYLVHTLLEFYLKTVFKNYHNRTVEVRTLKSFSTLANNFVLIVSQLQPSQENEMFSIRDSAHRRFLLFRRAFKQLDVEAALTKALGEVDILLTWMQKFYKL
Toxic effects on MSC [7]: no toxic effects
